Source: patent US20230083012A1, “DIHYDROPYRIMIDINE DERIVATIVES AND USES THEREOF IN THE TREATMENT OF HBV INFECTION OR OF HBV-INDUCED DISEASES” (priority 2019, published 2023)

Legend:
HBV = test: Anti-HBV activity in HepG2.2.15 cells (HBV DNA in culture medium by qPCR); type: cell-based; conditions: Hepatitis B virus, HepG2.2.15, 144 h, HepG2.2.15 cells, 6 days treatment, HBV DNA in culture medium quantified by real-time PCR; read-out: EC50
Description: Example 2: Anti-Viral Assay in HepG2.2.15 Cells
(§1) HepG2.2.15 (the HepG2.2.15 cell line can be produced by transfection of the HepG2 cell line as described in Sells, Chen, and Acs 1987 (Proc. Natl. Acad. Sci. USA 84: 1005-1009), and the HepG2 cell line is available from ATCC® under number HIB-8065™)
(§2) HepG2.2.15 cells were plated into 96-well plate in 2% FBS culture medium at the density of 40,000 cells/well and 5,000 cells/well for HBV inhibitory activity and cytotoxicity determination, respectively. After incubation at 37° C., 5% CO2 overnight, cells were treated with medium containing compounds for 6 days with medium and compounds refreshed after 3 days of treatment. Each compound was tested in a 1:3 serial dilutions at 8 different concentrations in triplicate. The highest concentration of the compounds was 10 uM or 1 uM for anti-HBV activity assay and 100 uM for cytotoxicity determination.
The change of HBV DNA level induced by the compounds was assessed by quantitative real-time polymerase chain reaction (qPCR). Briefly, the HBV DNA in the culture medium was extracted using QIAamp 96 DNA Blood Kit according to the manual and then quantified by real-time PCR assay using the primers and probe in the table 2 below.
(§3) 2) DATA Analysis EC50 and CC50 values are calculated by the GRAPTIPAD PRISM software.

[1] = Cytotoxicity determination in HepG2.2.15 cells (CCK-8 cell viability); type: cell-based; conditions: human, 6 days treatment, CCK-8 assay, highest concentration 100 uM
Description: as §1, §2
Cell viability was determined by CCK-8 assay. After 6 days of compounds treatment, 20 μl CCK-8 reagents were added to each well of cytotoxicity assay plates. Cell plates were incubated at 37° C., 5% CO2 for 2.5 h. The absorbance at 450 nm wavelength and the absorbance at 630 nm wavelength as reference was measured.
as §3

| SMILES | EC50 (HBV) [µM] | CC50 at 6 days [1] [µM] |
| --- | --- | --- |
| CCOC(=O)C1=C(CN2CC(F)(F)C3CN(C(C)C(=O)O)CC32)NC(c2nccs2)=N[C@H]1c1cccc(F)c1C (stereo in doubt) [Compound 14, 2-((cis)-1-(((S)-5-(Ethoxycarbonyl)-6-(3-fluoro-2-methylphenyl)-2-(thiazol-2-yl)-3,6-dihydropyrimidin-4-yl)methyl)-3,3-difluorohexahydropyrrolo[3,4-b]pyrrol-5(1H)-yl)propanoic acid] | 0.137 | > 100 |
| CCOC(=O)C1=C(CN2CC(F)(F)[C@H]3[C@@H]2CCN3CC2(CC(=O)O)CC2)NC(c2nccs2)=N[C@H]1c1cccc(F)c1C (relative stereo) [Compound 49, 2-(1-((4-(((S)-5-(ethoxycarbonyl)-6-(3-fluoro-2-methylphenyl)-2-(thiazol-2-yl)-3,6-dihydropyrimidin-4-yl)methyl)-6,6-difluorohexahydropyrrolo[3,2-b]pyrrol-1(2H)-yl)methyl)cyclopropyl)-acetic acid] | 0.0326 | 25.5 |
| CCOC(=O)C1=C(CN2CC(F)(F)[C@@H]3CN(CC4(C(=O)O)CC4)C[C@@H]32)NC(c2nccs2)=N[C@H]1c1cccc(F)c1C (single isomer, unassigned) [Compound 16B] | 0.0686 | > 100 |
| CCOC(=O)C1=C(CN2CC[C@H]3C(=O)N(CC(C)(C)C(=O)O)C(=O)[C@H]32)NC(c2nccs2)=N[C@H]1c1cccc(F)c1C (relative stereo) [Compound 4A, 3-(1-(((S)-5-(ethoxycarbonyl)-6-(3-fluoro-2-methylphenyl)-2-(thiazol-2-yl)-3,6-dihydropyrimidin-4-yl)methyl)-4,6-dioxohexahydropyrrolo[3,4-b]pyrrol-5(1H)-yl)-2,2-dimethylpropanoic acid] | 0.0063 | 32.6 |
| CCOC(=O)C1=C(CN2CC(F)(F)[C@H]3[C@@H]2CCN3C(C)=O)NC(c2nccs2)=N[C@H]1c1cccc(F)c1C (single isomer, unassigned) [Compound 61] | 0.0373 | 21.5 |
| CCOC(=O)C1=C(CN2CC(F)(F)[C@@H]3CN([C@H]4C[C@@H](C(=O)O)C4)C(=O)[C@@H]32)NC(c2nccs2)=N[C@H]1c1cccc(F)c1C (single isomer, unassigned) [Compound 192] | 0.0166 | 52.9 |
| CCOC(=O)C1=C(CN2CC(F)(F)C3C(=O)N(CC(C)(C)C(=O)O)CC32)NC(c2nccs2)=N[C@H]1c1cccc(F)c1C (some centres unmarked) [Compound 5] | 0.0227 | 90.1 |
| CCOC(=O)C1=C(CN2CC(F)(F)[C@H]3[C@@H]2CCN3[C@H]2CC[C@@H](C(=O)O)CC2)NC(c2nccs2)=N[C@H]1c1cccc(F)c1C (single isomer, unassigned) [Compound 104A] | 0.0104 | 16.1 |
| CCOC(=O)C1=C(CN2CC(F)(F)[C@H]3[C@@H]2CCN3C(=O)NC(N)=O)NC(c2nccs2)=N[C@H]1c1cccc(F)c1C (single isomer, unassigned) [Compound 63] | 0.0118 | 25.2 |
| CCOC(=O)C1=C(CN2CC(F)(F)[C@@H]3[C@H]2CON3CCC(C)(C)C(=O)O)NC(c2nccs2)=N[C@H]1c1ccc(F)cc1Cl (single isomer, unassigned) [Compound 169, 4-((cis)-4-((6-(2-chloro-4-fluorophenyl)-5-(ethoxycarbonyl)-2-(thiazol-2-yl)-3,6-dihydropyrimidin-4-yl)methyl)-6,6-difluorohexahydro-1H-pyrrolo[3,2-c]isoxazol-1-yl)-2,2-dimethylbutanoic acid] | 0.005 | > 50 |
| CCOC(=O)C1=C(CN2CC(F)(F)[C@@H]3[C@H]2CN(C(C)=O)N3CCC(C)(C)C(=O)O)NC(c2nccs2)=N[C@H]1c1ccc(F)c(F)c1F (single isomer, unassigned) [Compound 83A, 4-((cis)-2-acetyl-4-((5-(ethoxycarbonyl)-2-(thiazol-2-yl)-6-(2,3,4-trifluorophenyl)-3,6-dihydropyrimidin-4-yl)methyl)-6,6-difluorohexahydropyrrolo[3,2-c]pyrazol-1(2H)-yl)-2,2-dimethylbutanoic acid] | 0.046 | 73.5 |
| CCOC(=O)C1=C(CN2CC(F)(F)[C@@H]3C(=O)N(C4(C(=O)O)CC4)C[C@@H]32)NC(c2nccs2)=N[C@H]1c1cccc(F)c1C (single isomer, unassigned) [Compound 198] | 0.096 | 99.6 |
| CCOC(=O)C1=C(CN2CC(F)(F)C3[C@@H]2CCN3[C@H]2C[C@](C)(C(=O)O)C2)NC(c2nccs2)=N[C@H]1c1cccc(F)c1C (single isomer, unassigned) [Compound 112A] | 0.0046 | 28.7 |
| CCOC(=O)C1=C(CN2CC(F)(F)[C@@H]3CN([C@H]4CC[C@H](C(=O)O)CC4)C(=O)[C@@H]32)NC(c2nccs2)=N[C@H]1c1cccc(F)c1C (single isomer, unassigned) [Compound 185B] | 0.0083 | 27.6 |
| COC(=O)C1=C(CN2CC(F)(F)[C@@H]3[C@H]2CON3CCC(C)(C)C(=O)O)NC(c2nccs2)=N[C@H]1c1ccc(F)c(F)c1C (single isomer, unassigned) [Compound 161, (cis)-4-(4-((6-(3,4-difluoro-2-methylphenyl)-5-(methoxycarbonyl)-2-(thiazol-2-yl)-3,6-dihydropyrimidin-4-yl)methyl)-6,6-difluorohexahydro-1H-pyrrolo[3,2-c]isoxazol-1-yl)-2,2-dimethylbutanoic acid] | 0.008 | > 50 |
| CCOC(=O)C1=C(CN2CC(F)(F)[C@@H]3[C@H]2CON3C[C@H](CC)C(=O)O)NC(c2nccs2)=N[C@H]1c1cccc(F)c1C (single isomer, unassigned) [Compound 178B] | 0.012 | > 50 |
| CCOC(=O)C1=C(CN2CC(F)(F)[C@H]3[C@@H]2CCN3CCOC(C)(C)C(=O)O)NC(c2nccs2)=N[C@H]1c1cccc(F)c1C (single isomer, unassigned) [Compound 111] | 0.0078 | 33.4 |
| CCOC(=O)C1=C(CN2CC(F)(F)[C@H]3[C@@H]2CCN3CCC(C)(C)C(=O)O)NC(c2nccs2)=N[C@@H]1c1ccc(F)c(F)c1C (single isomer, unassigned) [Compound 139, 4-((cis)-4-((6-(3,4-difluoro-2-methylphenyl)-5-(ethoxycarbonyl)-2-(thiazol-2-yl)-3,6-dihydropyrimidin-4-yl)methyl)-6,6-difluorohexahydropyrrolo[3,2-b]pyrrol-1(2H)-yl)-2,2-dimethylbutanoic acid] | 0.0006 | 16.1 |
| CCOC(=O)C1=C(CN2CC(F)(F)[C@@H]3CN(C[C@@H](CC)C(=O)O)C(=O)C32)NC(c2nccs2)=N[C@H]1c1cccc(F)c1C (single isomer, unassigned) [Compound 183A] | 0.0143 | 40.3 |
| CCOC(=O)C1=C(CN2CC(F)(F)[C@H]3[C@@H]2CN(C(C)=O)N3CCC(C)(C)C(=O)O)NC(c2nccs2)=N[C@H]1c1ccc(F)c(F)c1F (single isomer, unassigned) [Compound 83B, 4-((cis)-2-acetyl-4-((5-(ethoxycarbonyl)-2-(thiazol-2-yl)-6-(2,3,4-trifluorophenyl)-3,6-dihydropyrimidin-4-yl)methyl)-6,6-difluorohexahydropyrrolo[3,2-c]pyrazol-1(2H)-yl)-2,2-dimethylbutanoic acid] | 0.035 | 39 |
| CCOC(=O)C1=C(CN2CC(F)(F)[C@@H]3[C@H]2CON3C[C@@H](CC)C(=O)O)NC(c2nccs2)=N[C@H]1c1cccc(F)c1C (single isomer, unassigned) [Compound 178A] | 0.0035 | > 50 |
| [H][C@]1(C(=O)O)C[C@@]2(C1)C[C@@]([H])(N1CC[C@H]3[C@@H]1C(F)(F)CN3CC1=C(C(=O)OCC)[C@H](c3cccc(F)c3C)N=C(c3nccs3)N1)C2 (single isomer, unassigned) [Compound 113B] | < 0.001 | > 3.1 |
| CCOC(=O)C1=C(CN2CC(F)(F)[C@@H]3[C@H]2CN(CC)N3CCC(C)(C)C(=O)O)NC(c2nccs2)=N[C@H]1c1cccc(F)c1C (single isomer, unassigned) [Compound 90] | 0.0205 | 19.2 |
| COC(=O)C1=C(CN2CC(F)(F)[C@H]3[C@@H]2CCN3C[C@@H](C)C(=O)O)NC(c2nccs2)=N[C@H]1c1cccc(F)c1Cl (single isomer, unassigned) [Compound 132A, 3-((cis)-4-((6-(2-Chloro-3-fluorophenyl)-5-(methoxycarbonyl)-2-(thiazol-2-yl)-3,6-dihydropyrimidin-4-yl)methyl)-6,6-difluorohexahydropyrrolo[3,2-b]pyrrol-1(2H)-yl)-2-methylpropanoic acid] | < 0.0005 | 40.7 |
| CCOC(=O)C1=C(CN2CC(F)(F)[C@H]3[C@@H]2CCN3C[C@H]2C[C@](C)(C(=O)O)C2)NC(c2nccs2)=N[C@H]1c1cccc(F)c1C (single isomer, unassigned) [Compound 116B] | 0.0025 | 10.6 |
